Legend:
[1] = tested on: male Sprague Dawley rats with STZ-induced diabetes; assay: Mixed meal tolerance test in male rats with streptozotocin induced diabetes; assay type: in vivo, rat; settings: for Glucose Values 0 min. / Glucose Values 20 min. / Glucose Values 40 min. / Glucose Values 60 min. / Glucose Values 120 min. / Baseline Adjusted AUC: mean ± SE; for Baseline Adjusted AUC: glucose AUC in MTT
Experimental: Rats which have been administered streptozotocin (STZ) develop diabetes mellitus. Agents which modulate glucose levels in these animals are believed to be useful in the treatment of diabetes in humans.
The test compound is formulated by adding a vehicle of 1% hydroxyethylcellulose (HEC), 0.25% Tween® 80 w/ antifoam 0.05% to preweighed test compound to make a 2.5 mg/ml solution. The mixture is probe sonicated for approximately 30 seconds. The resulting solution is used as a stock solution, from which the lower concentration dose solutions are prepared by dilution with the vehicle. STZ, 45 mg/kg, is formulated by dissolving in 0.1M Citrate buffer in 3 ml aliquots and stored in the dark on ice, when not being administered. A high fat content mixed meal (Bio-Serv® Rodent Diet F3282 High Fat) comprising Fat Calories (60%), Carbohydrate Calories (26%) and Protein Calories (15%) is utilized. Single housed Sprague Dawley rats are allowed to acclimate for a period of 3 to 7 days.
In an effort to ensure that the animals have not recently fed, STZ is administered in the afternoon, approximately six hours into the light cycle (lights on 6 am, lights off 6 pm). The animals are anesthetized with isoflurane and STZ is delivered via tail vein injection. Once animals regain consciousness, they are returned to housing and allowed to recover for 7 days.
On the two days immediately prior to the meal tolerance test (MTT) all rats are given a small amount (2-4 g) of the F3282 diet, so they became acclimated to it prior to receiving it during the experiment. On the evening before the experiment, the rats are moved into clean cages and their food is removed. The following morning animals are weighed and a blood sample is taken by tail snip for glucose measurement (Abbott AlphaTrak glucometers: code 29). Animals are grouped n=6 based on fasted body weight and glucose. Thirty minutes after the test compound is orally administered, two glucose measurements are collected. Then a five gram pellet of Bio-Serv® diet 3282 is given. After 20 minutes remaining food is taken away and weighed. Blood samples are taken at 20, 40, 60 and 120 minutes for glucose measurement.

[2] = tested on: normal glycemic C57Bl/6 mouse; assay: Oral glucose tolerance test (OGTT); assay type: in vivo; settings: for Glucose 0 Minute: 3 h before dextrose 3 g/kg; for Glucose 0 Minute / Glucose 20 Minute / Glucose 40 Minute / Glucose 60 Minute / Glucose 120 Minute / Baseline Adjusted AUC: mean ± SE; for Glucose 20 Minute: 20 min after dextrose; for Glucose 40 Minute: 40 min after dextrose; for Glucose 60 Minute: 60 min after dextrose; for Glucose 120 Minute: 120 min after dextrose; for Baseline Adjusted AUC: glucose AUC during OGTT
Experimental: The test compound is formulated by adding a vehicle of 1% hydroxyethylcellulose, 0.25% Tween® 80 w/ antifoam 0.05% to preweighed test compound to make a 1 mg/ml solution. The mixture is probe sonicated for approximately 30 seconds. The resulting solution is used as a stock solution from which the lower concentration dose solutions are prepared by dilution with the vehicle.
Single housed C57Bl/6 mice are fasted overnight by removing access to food the late afternoon before test day. The following morning, the mice are weighed and a single fasting blood sample is taken by tail snip to measure glucose by glucometer (Roche AccuChek). Study groups (n=5) are determined based on fasted blood glucose and comprise preferably animals in the range of 80-100 mg/dl glucose.
After grouping, the first mouse is orally gavaged with 10 ml/kg test compound preparation and a timer started. Each subsequent animal is dosed a minute and a half apart. Three hours after the first compound treatment is started, a baseline blood sample is taken for measuring glucose (from the first animal, via tail snip). The animal is then immediately given an oral dose of 50% dextrose (Hospira) at 3 g/kg. Blood samples are taken for glucose, exactly a minute and half apart, by tail vein so that blood is collected in each animal at 20, 40, 60 and 120 minutes after the dextrose dose.

[3] = result in words, Example 1 10 and 30 mg/kg, Acarbose 60 mg/kg

C[C@H]1O[C@H](O[C@H]2[C@H](O)[C@@H](O)[C@@H](O[C@H]3[C@H](O)[C@@H](O)C(O)O[C@@H]3CO)O[C@@H]2CO)[C@H](O)[C@@H](O)[C@@H]1N[C@H]1C=C(CO)[C@@H](O)[C@H](O)[C@H]1O (stereo partly shown) [Acarbose, reference compound]
Glucose Values 0 min. ([1]; 60 mg/kg oral): 124 ± 16.9 mg/dL | Glucose Values 20 min. ([1]; 60 mg/kg oral): 181 ± 22.8 mg/dL | Glucose Values 40 min. ([1]; 60 mg/kg oral): 301.3 ± 51.2 mg/dL | Glucose Values 60 min. ([1]; 60 mg/kg oral): 371.5 ± 63.9 mg/dL | Glucose Values 120 min. ([1]; 60 mg/kg oral): 433.7 ± 83 mg/dL | Baseline Adjusted AUC ([1]; 60 mg/kg oral): 23877 ± 4649 | glucose baseline adjusted AUCs in the MTT [1, 3]: significantly decreases | glucose in the MTT compared to the vehicle controls [1, 3]: did not significantly decrease

Cc1cc(/C=C/CCN2CCCC3(CCNCC3)C2)ccc1Cc1c(O[C@@H]2O[C@H](CO)[C@@H](O)[C@H](O)[C@H]2O)n[nH]c1C(C)C [Example 1, 4-{4-[(1E)-4-(2,9-diazaspiro[5.5]undec-2-yl)but-1-en-1-yl]-2-methylbenzyl}-5-(propan-2-yl)-1H-pyrazol-3-yl beta-D-glucopyranoside]
Glucose 0 Minute ([2]; 0.3 mg/kg oral): 78 ± 4.2 mg/dL | Glucose 20 Minute ([2]; 0.3 mg/kg oral): 185 ± 13.7 mg/dL | Glucose 40 Minute ([2]; 0.3 mg/kg oral): 197 ± 14.7 mg/dL | Glucose 60 Minute ([2]; 0.3 mg/kg oral): 164 ± 6.3 mg/dL | Glucose 120 Minute ([2]; 0.3 mg/kg oral): 121 ± 11.8 mg/dL | Baseline Adjusted AUC ([2]; 0.3 mg/kg oral): 5400 ± 519^ | Glucose 0 Minute ([2]; 1 mg/kg oral): 76 ± 3.3 mg/dL | Glucose 20 Minute ([2]; 1 mg/kg oral): 147 ± 8.3 mg/dL | Glucose 40 Minute ([2]; 1 mg/kg oral): 171 ± 11.1 mg/dL | Glucose 60 Minute ([2]; 1 mg/kg oral): 162 ± 5.8 mg/dL | Glucose 120 Minute ([2]; 1 mg/kg oral): 109 ± 7.3 mg/dL | Baseline Adjusted AUC ([2]; 1 mg/kg oral): 4158 ± 374^ | Glucose 0 Minute ([2]; 3 mg/kg oral): 72 ± 2.6 mg/dL | Glucose 20 Minute ([2]; 3 mg/kg oral): 133 ± 7.1 mg/dL | Glucose 40 Minute ([2]; 3 mg/kg oral): 150 ± 7.5 mg/dL | Glucose 60 Minute ([2]; 3 mg/kg oral): 155 ± 7.2 mg/dL | Glucose 120 Minute ([2]; 3 mg/kg oral): 115 ± 10 mg/dL | Baseline Adjusted AUC ([2]; 3 mg/kg oral): 3606 ± 421 | Glucose 0 Minute ([2]; 10 mg/kg oral): 78 ± 5.4 mg/dL | Glucose 20 Minute ([2]; 10 mg/kg oral): 124 ± 1.2 mg/dL | Glucose 40 Minute ([2]; 10 mg/kg oral): 137 ± 5.4 mg/dL | Glucose 60 Minute ([2]; 10 mg/kg oral): 138 ± 6.1 mg/dL | Glucose 120 Minute ([2]; 10 mg/kg oral): 114 ± 4.3 mg/dL | Baseline Adjusted AUC ([2]; 10 mg/kg oral): 2693 ± 309 | average maximum concentration of plasma glucose (Cmax) during the OGTT ([2]; 0.3-10 mg/kg, result in words): dose dependently decreases | average time that it takes for glucose to reach maximum concentration (Tmax) ([2]; 0.3-10 mg/kg, result in words): increasing | Glucose Values 0 min. ([1]; 10 mg/kg oral): 139 ± 16.1 mg/dL | Glucose Values 20 min. ([1]; 10 mg/kg oral): 221.2 ± 26.3 mg/dL | Glucose Values 40 min. ([1]; 10 mg/kg oral): 268.7 ± 29 mg/dL | Glucose Values 60 min. ([1]; 10 mg/kg oral): 330 ± 36.7 mg/dL | Glucose Values 120 min. ([1]; 10 mg/kg oral): 490.8 ± 39.2 mg/dL | Baseline Adjusted AUC ([1]; 10 mg/kg oral): 22432 ± 2234 | Glucose Values 0 min. ([1]; 30 mg/kg oral): 137.4 ± 26.9 mg/dL | Glucose Values 20 min. ([1]; 30 mg/kg oral): 195.4 ± 44.8 mg/dL | Glucose Values 40 min. ([1]; 30 mg/kg oral): 232 ± 52.2 mg/dL | Glucose Values 60 min. ([1]; 30 mg/kg oral): 263.9 ± 62.2 mg/dL | Glucose Values 120 min. ([1]; 30 mg/kg oral): 355.3 ± 73.2 mg/dL | Baseline Adjusted AUC ([1]; 30 mg/kg oral): 14649 ± 3673

Reference: US9296775B2, “Pyrazole compounds” (Eli Lilly and Company, priority 2012, dated 2016)
